Test results published in patent publication US12139717B2, “Improving plant regeneration” (KWS SAAT SE & Co. KGaA, priority 2019, dated 2024).
“Also recorded” adds a separate entry of the source.

Assays:
Arabidopsis thaliana = details: Poretska et al. 2016; cited from earlier work
sugar beet friable calli = experiment: Sugar beet shoot induction and plant regeneration from induced calli; format: cell-based; details: calli induced with vs without HP
Description: 3. Friable calli of step 2 were harvested from the induction and transferred to the shoot induction medium containing MS salts, 30 g/l sucrose, 1 mg/l GA3 and 1 mg/l Thidiazuron (TDZ). The calli were incubated at 24° C. in the light/dark cycle (16 h/8 h) for 1 to 2 weeks. 4. Regenerated shoots were mounted and cultured in the medium of step 1. The plants are grown at 24° C. in the light/dark cycle (16 h/8 h).

sugar beet callus = experiment: Agrobacteria-mediated transformation of HP induced sugar beet callus; format: cell-based; details: recalcitrant genotype; 70s::tDT construct; seven days after infection
Description: a. Sugar beet calli were induced as described in steps 1 and 2.
b. Friable calli were mounted in medium containing MS salts, 30 g/l sucrose, 1 mg/l GA3 and 1 mg/l Thidiazuron (TDZ), and kept for 1 week in the dark, 24° C.
c. Agrobacterium AGL-1 harbouring the vector pZFN-nptII-70s::AtGRF5 and pZFN-nptII-70s::tDT was grown in medium (5 g/l tryptone+2.5 g/l yeast extract+1 g/l NaCl+5 g/l mannitol+0.1 g/l MgSO4×7H2O+0.25 g/l KH2PO4+1 g/l glutamic acid, pH 7.0) supplemented with the appropriate antibiotics, at 28° C., for 24 h.
d. Calli were inoculated with Agrobacterium suspension (medium: 440 mg/l CaCl2×2H2O+170 mg/l KH2PO4+1.9 g/l KNO3+180.7 mg/l MgSO4+1.65 g/l NH4NO3+2 mg/l BAP+40 μg/l Acetosyringone+20 g/l sucrose+2 g/l glucose, pH 6.0) at an OD600 of 0.8. The callus tissue and the Agrobacterium were incubated in medium comprising 440 mg/l CaCl2×2H2O, 170 mg/l KH2PO4, 1.9 g/l KNO3, 180.7 mg/l MgSO4, 1.65 g/l NH4NO3, 2 mg/l BAP, 40 μg/l Acetosyringone, 20 g/l sucrose and 2 g/l glucose, at 21° C. for 3 days in the dark.
e. Calli were sub-cultured to medium comprising MS salts, 30 g/l sucrose, 1 mg/l GA3, 1 mg/l TDZ and 500 mg/l Timentin, and incubated in the dark, at 24° C. for 1 week.
f. […]

sugar beet leaf explants = experiment: Sugar beet callus induction from leaf explants in callus induction medium; format: cell-based; set-up: key to Callus induction effect: −: no callus induction effect; +: modest callus induction effect; ++: strong callus induction effect; details: for callus induction in recalcitrant genotype A (FIG. 3): DMSO control
Description: 1. Micropropagated shoots of various proprietary genotypes were used as starting material: Genotypes A and B are recalcitrant to callus induction and plant regeneration. […] Therefore, such calli were never transformable.
Genotype C is less recalcitrant. Shoots were multiplied in MS salts+30 g/l sucrose and 0.25 mg/l benzyladenine (BAP).
2. To induce friable callus, leaf explants were isolated from micropropagated shoots and incubated in callus induction medium (CIM) containing MS salts including 15 g/I sucrose and 2 mg/l BAP at 28° C. for 7 to 8 weeks. […] HP is Hyperphyllin, a small molecule with the chemical formula N-[4-Amino-2-chlorophenyl]-2,4-dichlorobenzamide (CAS #: 42480-64-8).
After incubation period the induction and formation of callus has been analysed. […] There is no significant difference in induction efficiency between these two concentrations.

Row | SMILES | leaf formation rate (Arabidopsis thaliana) | plants regenerated from induced callus (FIG. 6) (sugar beet friable calli) | Agrobacterium infection of HP induced callus (FIG. 7) (sugar beet callus) | callus inducing effect (in words) (sugar beet leaf explants; 10 μM) | Callus induction effect (sugar beet leaf explants; 10 μM dissolved in 2 ml/L DMSO) | callus inducing effect (in words) (sugar beet leaf explants; 30 μM) | Callus induction effect (sugar beet leaf explants; 30 μM dissolved in 2 ml/L DMSO) | amount of callus tissue induced from leaves (FIG. 5) (sugar beet leaf explants; 30 μM vs control without HP) | callus induction in recalcitrant genotype A (FIG. 3) (sugar beet leaf explants; 30 μM) | callus inducing effect (in words) (sugar beet leaf explants; 50 μM) | Callus induction effect (sugar beet leaf explants; 50 μM dissolved in 2 ml/L DMSO) | callus induction in recalcitrant genotype A (FIG. 3) (sugar beet leaf explants; 50 μM) | callus inducing effect (in words) (sugar beet leaf explants; 100 μM) | Callus induction effect (sugar beet leaf explants; 100 μM dissolved in 2 ml/L DMSO) | Callus induction effect (sugar beet leaf explants; 500 μM dissolved in 2 ml/L DMSO) | Callus induction effect (sugar beet leaf explants; 1 mM dissolved in 2 ml/L DMSO) | callus inducing effect (in words) (sugar beet leaf explants; higher concentration (500 μM, 1 mM)) | callus induction efficiency with vs without HP (FIG. 4) (sugar beet leaf explants; recalcitrant genotypes A and B) | callus induction in recalcitrant genotype (FIG. 9) (sugar beet leaf explants; 50 μM as printed in legend, control without HP treatment)
1 | Nc1ccc(NC(=O)c2ccc(Cl)cc2Cl)c(Cl)c1 [HP, N-[4-Amino-2-chlorophenyl]-2,4-dichlorobenzamide] | enhance leaf formation rate | More plants could be regenerated | can be infected by agrobacteria | modest effect | + | strong callus inducing effect | ++ | much more amount of callus tissue | dramatically promotes callus induction; also recorded: promotes callus formation | strong callus inducing effect | ++ | promotes callus formation | modest effect | + | − | − | no effect | boosting effect | 
2 | O=C(Nc1ccccc1)c1ccccc1Cl [HP derivate A3] | enhance leaf formation rate |  |  |  |  |  |  |  |  |  |  |  |  |  |  |  |  |  | 
3 | O=C(Nc1c(F)cccc1F)c1ccc(Cl)cc1 [HP derivate A1] | enhance leaf formation rate |  |  |  |  | worked | + |  |  |  | − |  |  |  |  |  |  |  | 
4 | O=C(Nc1ccccc1)c1c(F)cccc1Cl [HP derivate A2] | enhance leaf formation rate |  |  |  |  | strong callus-inducing effect | ++ |  |  | weak effect | + |  |  |  |  |  |  |  | promotes callus induction
